Results as given in the supplement of paper PMC10307832.

How the values were obtained:
Experiment in all cases: relative viability (nuclei count vs DMSO), 5 days (fraction); higher = more cells survive
Sorafenib + Decitabine = compound: CNC(=O)c1cc(Oc2ccc(NC(=O)Nc3ccc(Cl)c(C(F)(F)F)c3)cc2)ccn1 [Sorafenib] + Nc1ncn([C@H]2C[C@H](O)[C@@H](CO)O2)c(=O)n1 [Decitabine] (partner 2 µM)
How it was run: (§1)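 Relative viability divides the nuclei count in treated wells by that in vehicle wells. Lung cancer cell lines were seeded in 1536-well plates, dosed by pin tool the next day, and fixed and stained after 5 days in one step with final 0.05% Triton X-100, 1% formaldehyde and 1 ug/ml Hoechst. Dosing was a single drug or a fixed anchor-drug dose plus five library-drug doses (not always all listed) in √10 steps, and values are medians of duplicate plates imaged at 4×.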

Sorafenib + Linsitinib = compound: CNC(=O)c1cc(Oc2ccc(NC(=O)Nc3ccc(Cl)c(C(F)(F)F)c3)cc2)ccn1 [Sorafenib] + C[C@]1(O)C[C@@H](c2nc(-c3ccc4ccc(-c5ccccc5)nc4c3)c3c(N)nccn32)C1 [Linsitinib] (partner 1 µM)
How it was run: as §1

Sorafenib + Navitoclax = compound: CNC(=O)c1cc(Oc2ccc(NC(=O)Nc3ccc(Cl)c(C(F)(F)F)c3)cc2)ccn1 [Sorafenib] + CC1(C)CCC(c2ccc(Cl)cc2)=C(CN2CCN(c3ccc(C(=O)NS(=O)(=O)c4ccc(N[C@H](CCN5CCOCC5)CSc5ccccc5)c(S(=O)(=O)C(F)(F)F)c4)cc3)CC2)C1 [Navitoclax] (partner 0.5 µM)
How it was run: as §1

Sorafenib + Lapatinib = compound: CNC(=O)c1cc(Oc2ccc(NC(=O)Nc3ccc(Cl)c(C(F)(F)F)c3)cc2)ccn1 [Sorafenib] + CS(=O)(=O)CCNCc1ccc(-c2ccc3ncnc(Nc4ccc(OCc5cccc(F)c5)c(Cl)c4)c3c2)o1 [Lapatinib] (partner 2 µM)
How it was run: as §1

Sorafenib + Vorinostat = compound: CNC(=O)c1cc(Oc2ccc(NC(=O)Nc3ccc(Cl)c(C(F)(F)F)c3)cc2)ccn1 [Sorafenib] + O=C(CCCCCCC(=O)Nc1ccccc1)NO [Vorinostat] (partner 1 µM)
How it was run: as §1

Cell Line	relative viability (Sorafenib + Decitabine; first compound 0.08 µM)	relative viability (Sorafenib + Decitabine; first compound 0.253 µM)	relative viability (Sorafenib + Decitabine; first compound 2.53 µM)	relative viability (Sorafenib + Decitabine; first compound 8 µM)	relative viability (Sorafenib + Linsitinib; first compound 0.08 µM)	relative viability (Sorafenib + Linsitinib; first compound 0.253 µM)	relative viability (Sorafenib + Linsitinib; first compound 2.53 µM)	relative viability (Sorafenib + Linsitinib; first compound 8 µM)	relative viability (Sorafenib + Navitoclax; first compound 0.08 µM)	relative viability (Sorafenib + Navitoclax; first compound 0.253 µM)	relative viability (Sorafenib + Navitoclax; first compound 2.53 µM)	relative viability (Sorafenib + Navitoclax; first compound 8 µM)	relative viability (Sorafenib + Lapatinib; first compound 0.08 µM)	relative viability (Sorafenib + Lapatinib; first compound 0.253 µM)	relative viability (Sorafenib + Lapatinib; first compound 2.53 µM)	relative viability (Sorafenib + Lapatinib; first compound 8 µM)	relative viability (Sorafenib + Vorinostat; first compound 0.08 µM)	relative viability (Sorafenib + Vorinostat; first compound 0.253 µM)	relative viability (Sorafenib + Vorinostat; first compound 2.53 µM)	relative viability (Sorafenib + Vorinostat; first compound 8 µM)
NCI-H1792	0.507	0.492	0.489	0.456	0.569	0.511	0.478	0.546	0.671	0.51	0.585	0.544	0.948	0.811	0.936	0.879	–	–	–	–
NCI-H522	0.645	0.686	0.657	0.648	–	–	–	–	–	–	–	–	–	–	–	–	1.02	0.81	0.89	0.741
NCI-H358	0.224	0.222	0.217	0.121	0.763	0.85	0.748	0.255	–	–	–	–	0.453	0.45	0.558	0.519	0.666	0.712	0.594	0.208
NCI-H2228	–	–	–	–	0.682	0.551	0.669	0.596	0.784	0.706	0.828	0.477	1.23	0.936	0.985	0.627	0.672	0.598	0.265	0.315
NCI-H1703	–	–	–	–	0.642	0.336	0.142	0.179	1.03	0.319	0.215	0.148	0.716	0.435	0.28	0.221	–	–	–	–
LCLC-103H	0.701	0.774	0.771	0.698	1.21	0.981	1.12	1.2	–	–	–	–	–	–	–	–	0.813	0.75	0.778	0.737
NCI-H2170	0.493	0.411	0.486	0.437	–	–	–	–	0.615	0.57	0.64	0.502	0.279	0.294	0.349	0.39	0.842	0.665	0.856	0.576
ChaGo-K-1	0.532	0.537	0.51	0.471	–	–	–	–	1.23	0.866	1.11	0.576	–	–	–	–	0.737	0.689	0.775	0.557
IA-LM	–	–	–	–	0.456	0.281	0.373	0.436	0.579	0.385	0.488	0.438	0.491	0.358	0.456	0.446	–	0.647	0.436	0.508
ABC-1	1.23	–	0.823	1	0.837	0.893	0.918	0.956	–	–	–	–	1.25	1.19	1.23	0.726	1.23	0.811	1.22	0.482
NCI-H661	0.57	0.503	0.531	0.356	0.816	0.57	0.55	0.417	–	–	–	–	0.595	0.509	0.446	0.507	0.818	0.757	0.796	0.441
